Laboratory results from the supplement of paper PMC10307832.

Experiments:
Assay in all cases: relative viability (nuclei count vs DMSO), 5 days (fraction); higher = more cells survive
Irinotecan + Linsitinib = compound: CCc1c2c(nc3ccc(OC(=O)N4CCC(N5CCCCC5)CC4)cc13)-c1cc3c(c(=O)n1C2)COC(=O)[C@]3(O)CC [Irinotecan] + C[C@]1(O)C[C@@H](c2nc(-c3ccc4ccc(-c5ccccc5)nc4c3)c3c(N)nccn32)C1 [Linsitinib] (partner 1 µM)
Method in brief: (§1)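 Cells from lung cancer lines were seeded into 1536-well plates and, one day later, dosed by pin tool. Treatments were either a single drug or a fixed dose of an anchor drug with five library-drug doses (not always all listed) in √10 steps. After 5 days, nuclei were stained in a one-step fixation (final 0.05% Triton X-100, 1% formaldehyde, 1 ug/ml Hoechst) and counted on 4× images, and relative viability is the treated-to-vehicle nuclei ratio, as the median of duplicate plates.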

RU-SKI 43 + Tozasertib = compound: CC[C@@H](C)CNCC(=O)N1CCC2=C([C@@H]1COC3=CC=CC(=C3)C)C=CS2 [RU-SKI 43] + Cc1cc(Nc2cc(N3CCN(C)CC3)nc(Sc3ccc(NC(=O)C4CC4)cc3)n2)n[nH]1 [Tozasertib] (partner 0.1 µM)
Method in brief: as §1

MK-8033 + Phenformin = compound: Cn1cc(-c2cnc3ccc4ccc(CS(=O)(=O)NCc5ccccn5)cc4c(=O)c3c2)cn1 [MK-8033] + N=C(N)NC(=N)NCCc1ccccc1 [Phenformin] (partner 250 µM)
Method in brief: as §1

RU-SKI 43 + Vorinostat = compound: CC[C@@H](C)CNCC(=O)N1CCC2=C([C@@H]1COC3=CC=CC(=C3)C)C=CS2 [RU-SKI 43] + O=C(CCCCCCC(=O)Nc1ccccc1)NO [Vorinostat] (partner 1 µM)
Method in brief: as §1

| Cell Line | relative viability (Irinotecan + Linsitinib; first compound 2 µM) | relative viability (Irinotecan + Linsitinib; first compound 6.325 µM) | relative viability (Irinotecan + Linsitinib; first compound 20 µM) | relative viability (RU-SKI 43 + Tozasertib; first compound 0.1 µM) | relative viability (RU-SKI 43 + Tozasertib; first compound 0.3162 µM) | relative viability (RU-SKI 43 + Tozasertib; first compound 1 µM) | relative viability (RU-SKI 43 + Tozasertib; first compound 3.162 µM) | relative viability (RU-SKI 43 + Tozasertib; first compound 10 µM) | relative viability (MK-8033 + Phenformin; first compound 0.02 µM) | relative viability (MK-8033 + Phenformin; first compound 0.06325 µM) | relative viability (MK-8033 + Phenformin; first compound 0.2 µM) | relative viability (MK-8033 + Phenformin; first compound 0.6325 µM) | relative viability (MK-8033 + Phenformin; first compound 2 µM) | relative viability (RU-SKI 43 + Vorinostat; first compound 0.1 µM) | relative viability (RU-SKI 43 + Vorinostat; first compound 0.3162 µM) | relative viability (RU-SKI 43 + Vorinostat; first compound 1 µM) | relative viability (RU-SKI 43 + Vorinostat; first compound 3.162 µM) | relative viability (RU-SKI 43 + Vorinostat; first compound 10 µM) | relative viability (Irinotecan + Linsitinib; first compound 0.6325 µM) |
| --- | --- | --- | --- | --- | --- | --- | --- | --- | --- | --- | --- | --- | --- | --- | --- | --- | --- | --- | --- |
| 201T | 0.85 | 0.445 | 0.397 | 0.883 | 1.03 | 0.883 | 0.931 | 0.812 | 0.499 | 0.448 | 0.39 | 0.436 | 0.469 | 0.968 | 1.17 | 1.09 | 1.06 | 0.957 |  |
| A549 | 0.636 | 0.211 | 0.0965 |  |  |  |  |  | 0.221 | 0.157 | 0.172 | 0.148 | 0.193 |  |  |  |  |  | 0.374 |
| A-427 | 0.231 | 0.221 | 0.198 | 0.226 | 0.165 | 0.23 | 0.21 | 0.196 | 0.308 | 0.371 | 0.289 | 0.325 | 0.374 | 0.868 | 0.823 | 0.933 | 0.873 | 0.786 |  |
| ABC-1 | 0.676 | 0.344 | 0.238 | 0.16 | 0.172 | 0.18 | 0.166 | 0.185 | 0.202 | 0.219 | 0.227 | 0.281 | 0.211 | 0.964 | 1.08 | 1.27 | 1.01 | 1.16 |  |
| BEN | 0.7 | 0.3 | 0.378 | 0.502 | 0.426 | 0.546 | 0.495 | 0.509 | 0.288 | 0.239 | 0.269 | 0.233 | 0.255 | 0.621 | 0.531 | 0.665 | 0.639 | 0.546 | 1.06 |
| CAL-12T | 0.77 | 0.366 | 0.264 | 0.296 | 0.403 | 0.303 | 0.26 | 0.243 | 0.56 | 0.518 | 0.444 | 0.697 | 0.545 | 0.77 | 0.89 | 0.909 | 0.699 | 0.692 | 0.589 |
| COR-L23 | 0.284 | 0.203 | 0.123 | 0.18 | 0.179 | 0.188 | 0.164 | 0.176 | 0.41 | 0.422 | 0.402 | 0.432 | 0.421 | 0.427 | 0.376 | 0.532 | 0.499 | 0.387 | 0.392 |
| COR-L 105 | 0.898 | 0.637 | 0.314 | 0.317 | 0.252 | 0.32 | 0.339 | 0.332 | 0.523 | 0.395 | 0.463 | 0.499 | 0.476 | 0.8 | 0.913 | 0.796 | 0.886 | 0.895 | 0.883 |
| Calu-6 | 0.523 | 0.2 | 0.132 |  |  |  |  |  |  |  |  |  |  |  |  |  |  |  | 0.714 |
| ChaGo-K-1 |  |  |  | 0.234 | 0.203 | 0.221 | 0.22 | 0.231 | 0.477 | 0.479 | 0.435 | 0.512 | 0.5 | 0.759 | 0.731 | 0.853 | 0.77 | 0.762 |  |
